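Step 1: Grow cells in 96-well plates. Step 2: Expose to compound for 48 hours at 5 concentrations. Step 3: Interpolate endpoints linearly; if unreached, use highest concentration. At the GI50, growth is halved. The concentration for full growth arrest is given as TGI.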
Key:
Test in all cases: NCI anticancer screen, dose series, 48 h
MALME-3M melanoma = test system: MALME-3M melanoma
T-47D breast = test system: T-47D breast
SK-OV-3 ovarian = test system: SK-OV-3 ovarian
HOP-62 NSCLC = test system: HOP-62 NSCLC
SK-MEL-5 melanoma = test system: SK-MEL-5 melanoma
MOLT-4 leukemia = test system: MOLT-4 leukemia
ACHN renal = test system: ACHN renal
A498 renal = test system: A498 renal
SN12C renal = test system: SN12C renal
MDA-MB-468 breast = test system: MDA-MB-468 breast
K-562 leukemia = test system: K-562 leukemia
786-0 renal = test system: 786-0 renal
U251 CNS = test system: U251 CNS
NCI-H460 lung = test system: NCI-H460 lung
DU-145 prostate = test system: DU-145 prostate
RXF 393 renal = test system: RXF 393 renal
MCF7 breast = test system: MCF7 breast
SF-539 CNS = test system: SF-539 CNS
MDA-MB-231 breast = test system: MDA-MB-231 breast
SNB-75 CNS = test system: SNB-75 CNS
M14 melanoma = test system: M14 melanoma
NCI-H226 lung = test system: NCI-H226 lung
HCT-15 colon = test system: HCT-15 colon
OVCAR-4 ovarian = test system: OVCAR-4 ovarian
LOX IMVI melanoma = test system: LOX IMVI melanoma
OVCAR-8 ovarian = test system: OVCAR-8 ovarian
BT-549 breast = test system: BT-549 breast
KM12 colon = test system: KM12 colon
SF-268 CNS = test system: SF-268 CNS
HOP-92 NSCLC = test system: HOP-92 NSCLC
SK-MEL-28 melanoma = test system: SK-MEL-28 melanoma
HS 578T breast = test system: HS 578T breast
COLO 205 colon = test system: COLO 205 colon
UACC-257 melanoma = test system: UACC-257 melanoma
IGROV1 ovarian = test system: IGROV1 ovarian
TK-10 renal = test system: TK-10 renal
UO-31 renal = test system: UO-31 renal
MDA-MB-435 = test system: MDA-MB-435
CCRF-CEM leukemia = test system: CCRF-CEM leukemia
EKVX NSCLC = test system: EKVX NSCLC
HCT-116 colon = test system: HCT-116 colon
SK-MEL-2 melanoma = test system: SK-MEL-2 melanoma
A549 NSCLC = test system: A549 NSCLC
NCI-H23 lung = test system: NCI-H23 lung
UACC-62 melanoma = test system: UACC-62 melanoma
PC-3 prostate = test system: PC-3 prostate
SNB-19 CNS = test system: SNB-19 CNS
RPMI-8226 leukemia = test system: RPMI-8226 leukemia
SF-295 CNS = test system: SF-295 CNS
OVCAR-5 ovarian = test system: OVCAR-5 ovarian
HCC-2998 colon = test system: HCC-2998 colon
SR leukemia = test system: SR leukemia
HL-60(TB) leukemia = test system: HL-60(TB) leukemia

SMILES: CSc1ccc(C(=O)Nc2ccc3nn(/C(C#N)=C/c4ccccn4)nc3c2)cc1
- GI50 (MALME-3M melanoma): 0.797 µM
- TGI (MALME-3M melanoma): 1.96 µM
- GI50 (T-47D breast): 1.27 µM
- TGI (T-47D breast): 10.9 µM
- GI50 (SK-OV-3 ovarian): 5.18 µM
- TGI (SK-OV-3 ovarian): 17.5 µM
- GI50 (HOP-62 NSCLC): 1.75 µM
- TGI (HOP-62 NSCLC): 6.64 µM
- GI50 (SK-MEL-5 melanoma): 1.39 µM
- TGI (SK-MEL-5 melanoma): 4.7 µM
- GI50 (MOLT-4 leukemia): 0.658 µM
- TGI (MOLT-4 leukemia): 2.27 µM
- GI50 (ACHN renal): 0.808 µM
- TGI (ACHN renal): 1.6 µM
- GI50 (A498 renal): 5.57 µM
- TGI (A498 renal): 11.9 µM
- GI50 (SN12C renal): 1.14 µM
- TGI (SN12C renal): 2.84 µM
- GI50 (MDA-MB-468 breast): 0.558 µM
- TGI (MDA-MB-468 breast): 1.36 µM
- GI50 (K-562 leukemia): 0.424 µM
- TGI (K-562 leukemia): 3.3 µM
- GI50 (786-0 renal): 0.776 µM
- TGI (786-0 renal): 1.5 µM
- GI50 (U251 CNS): 0.903 µM
- TGI (U251 CNS): 1.89 µM
- GI50 (NCI-H460 lung): 0.934 µM
- TGI (NCI-H460 lung): 2.11 µM
- GI50 (DU-145 prostate): 1.25 µM
- TGI (DU-145 prostate): 3.85 µM
- GI50 (RXF 393 renal): 0.699 µM
- TGI (RXF 393 renal): 1.36 µM
- GI50 (MCF7 breast): 0.687 µM
- TGI (MCF7 breast): 1.65 µM
- GI50 (SF-539 CNS): 0.811 µM
- TGI (SF-539 CNS): 1.53 µM
- GI50 (MDA-MB-231 breast): 0.842 µM
- TGI (MDA-MB-231 breast): 1.74 µM
- GI50 (SNB-75 CNS): 0.948 µM
- TGI (SNB-75 CNS): 8.25 µM
- GI50 (M14 melanoma): 0.866 µM
- TGI (M14 melanoma): 1.88 µM
- GI50 (NCI-H226 lung): 1.64 µM
- TGI (NCI-H226 lung): 9.69 µM
- GI50 (HCT-15 colon): 0.511 µM
- TGI (HCT-15 colon): 1.38 µM
- GI50 (OVCAR-4 ovarian): 1.74 µM
- TGI (OVCAR-4 ovarian): 9.64 µM
- GI50 (LOX IMVI melanoma): 0.664 µM
- TGI (LOX IMVI melanoma): 1.34 µM
- GI50 (OVCAR-8 ovarian): 1.48 µM
- TGI (OVCAR-8 ovarian): 14.2 µM
- GI50 (BT-549 breast): 0.92 µM
- TGI (BT-549 breast): 1.95 µM
- GI50 (KM12 colon): 1.06 µM
- TGI (KM12 colon): 3.08 µM
- GI50 (SF-268 CNS): 1.78 µM
- TGI (SF-268 CNS): 8.87 µM
- GI50 (HOP-92 NSCLC): 0.677 µM
- TGI (HOP-92 NSCLC): 1.93 µM
- GI50 (SK-MEL-28 melanoma): 0.885 µM
- TGI (SK-MEL-28 melanoma): 1.82 µM
- GI50 (HS 578T breast): 1.7 µM
- TGI (HS 578T breast): 12.6 µM
- GI50 (COLO 205 colon): 0.834 µM
- TGI (COLO 205 colon): 1.59 µM
- GI50 (UACC-257 melanoma): 1.28 µM
- TGI (UACC-257 melanoma): 4.19 µM
- GI50 (IGROV1 ovarian): 0.902 µM
- TGI (IGROV1 ovarian): 1.98 µM
- GI50 (TK-10 renal): 0.935 µM
- TGI (TK-10 renal): 2.2 µM
- GI50 (UO-31 renal): 0.712 µM
- TGI (UO-31 renal): 1.39 µM
- GI50 (MDA-MB-435): 0.759 µM
- TGI (MDA-MB-435): 2.56 µM
- GI50 (CCRF-CEM leukemia): 0.619 µM
- TGI (CCRF-CEM leukemia): 50 µM
- GI50 (EKVX NSCLC): 1.26 µM
- TGI (EKVX NSCLC): 5.95 µM
- GI50 (HCT-116 colon): 0.822 µM
- TGI (HCT-116 colon): 1.64 µM
- GI50 (SK-MEL-2 melanoma): 0.896 µM
- TGI (SK-MEL-2 melanoma): 1.9 µM
- GI50 (A549 NSCLC): 2.2 µM
- TGI (A549 NSCLC): 11 µM
- GI50 (NCI-H23 lung): 0.769 µM
- TGI (NCI-H23 lung): 1.54 µM
- GI50 (UACC-62 melanoma): 0.819 µM
- TGI (UACC-62 melanoma): 1.72 µM
- GI50 (PC-3 prostate): 1.51 µM
- TGI (PC-3 prostate): 6.33 µM
- GI50 (SNB-19 CNS): 2.14 µM
- TGI (SNB-19 CNS): 8.79 µM
- GI50 (RPMI-8226 leukemia): 0.901 µM
- TGI (RPMI-8226 leukemia): 2.97 µM
- GI50 (SF-295 CNS): 2.36 µM
- TGI (SF-295 CNS): 9.15 µM
- GI50 (OVCAR-5 ovarian): 0.99 µM
- TGI (OVCAR-5 ovarian): 2.51 µM
- GI50 (HCC-2998 colon): 0.854 µM
- TGI (HCC-2998 colon): 1.58 µM
- GI50 (SR leukemia): 0.327 µM
- TGI (SR leukemia): 4.18 µM
- GI50 (HL-60(TB) leukemia): 0.544 µM
- TGI (HL-60(TB) leukemia): 2.19 µM

Source: PubChem BioAssay (NCI)
